Data on eleven molecules can be found in PubChem BioAssay (NCI).

Test systems include OVCAR-4 ovarian; SNB-19 CNS; ACHN renal; SF-295 CNS; KM12 colon; 786-0 renal; OVCAR-5 ovarian; UACC-257 melanoma; OVCAR-8 ovarian; MOLT-4 leukemia.
Holding throughout (assay): NCI anticancer screen, dose series, 48 h

Each structure is given as a SMILES string.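 Results reflect a 48-hour exposure of cells in 96-well plates to compound at five concentrations. GI50 = concentration required for 50% inhibition of growth. At the TGI there is no net growth.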 A value given as a limit tells only on which side of the number the result lay.

`Nc1c(C(=O)Nc2ccccc2Cl)sc2nc3c(cc12)CCCCCC3`: the GI50 in the experiment on OVCAR-4 ovarian was 2.11 µM; with SNB-19 CNS it was 2.93 µM; with ACHN renal it was 2.17 µM; in the experiment on SF-295 CNS it was 2.47 µM; in the experiment on KM12 colon, 3.67 µM; in the experiment with 786-0 renal it was 1.75 µM. The GI50 in the experiment with OVCAR-5 ovarian was 6.88 µM; in the experiment with UACC-257 melanoma, 11.1 µM; in the experiment on OVCAR-8 ovarian, 4.11 µM. In addition, the TGI in the experiment with OVCAR-4 ovarian was 5.1 µM; in the experiment with SNB-19 CNS, 20.5 µM; in the experiment with ACHN renal, 4.86 µM; in the experiment on SF-295 CNS, 13.6 µM; in the experiment on KM12 colon, above 100 µM; in the experiment with 786-0 renal, 3.27 µM. Besides, the results for the TGI in the experiment on OVCAR-5 ovarian, in the experiment on UACC-257 melanoma and in the experiment with OVCAR-8 ovarian were above 100 µM, above 100 µM and 30.5 µM, respectively.
For the molecule `O=C(Nc1c(O)[nH]c(=S)[nH]c1=O)c1ccc2ccccc2n1`, the TGI in the experiment with OVCAR-4 ovarian, with SNB-19 CNS, with MOLT-4 leukemia, in the experiment on ACHN renal, with SF-295 CNS and in the experiment on 786-0 renal was above 100 µM throughout. The TGI in the experiment on UACC-257 melanoma and in the experiment on OVCAR-8 ovarian was above 100 µM each time.
As for `O=C1CCC2(CC1)SCCCS2`, the TGI in the experiment on OVCAR-4 ovarian, in the experiment with SNB-19 CNS, in the experiment with ACHN renal, in the experiment with SF-295 CNS, in the experiment on KM12 colon and in the experiment on 786-0 renal was above 100 µM in each case. The TGI in the experiment with OVCAR-5 ovarian, in the experiment with UACC-257 melanoma and with OVCAR-8 ovarian was above 100 µM throughout.
For the molecule `O=C(/C=C\c1ccc(Cl)cc1Cl)c1cccs1`, the TGI in the experiment on SNB-19 CNS was 33.7 µM; with MOLT-4 leukemia it was above 100 µM; with ACHN renal, 27.9 µM; in the experiment with SF-295 CNS it was 37.9 µM; in the experiment with KM12 colon it was 38.8 µM; with 786-0 renal it was 34.6 µM. For the same molecule, the TGI is 41.3 µM in the experiment on OVCAR-5 ovarian, 36.4 µM in the experiment on UACC-257 melanoma and 24.8 µM in the experiment on OVCAR-8 ovarian.
With `CCCCCCCC/C=C\CCCCCCCC(=O)NCCN(CCN)C(=O)CCCCCCC/C=C\CCCCCCCC`, the TGI in the experiment with OVCAR-4 ovarian, in the experiment with SNB-19 CNS, with MOLT-4 leukemia, with ACHN renal, in the experiment on SF-295 CNS and in the experiment with 786-0 renal was above 100 µM in each case. For the same molecule, the TGI in the experiment on OVCAR-5 ovarian, in the experiment with UACC-257 melanoma and with OVCAR-8 ovarian was above 100 µM throughout.
On to `CCCc1nc2c(C)cc(-c3nc4ccccc4n3C)cc2n1Cc1ccc(-c2ccccc2C(=O)O)cc1`, for which the GI50 in the experiment on OVCAR-4 ovarian is 50.6 µM; in the experiment on SNB-19 CNS it was 39.4 µM; in the experiment with MOLT-4 leukemia, 32.4 µM; with ACHN renal, 25.6 µM; in the experiment on SF-295 CNS it was 34.4 µM; with 786-0 renal, 41.4 µM. Further, the GI50 in the experiment on OVCAR-5 ovarian is above 100 µM; in the experiment with UACC-257 melanoma, 68.4 µM; in the experiment on OVCAR-8 ovarian, 35.4 µM. The TGI with OVCAR-4 ovarian, with SNB-19 CNS, in the experiment on MOLT-4 leukemia, with ACHN renal, in the experiment with SF-295 CNS and with 786-0 renal was above 100 µM in each case. Further, the TGI in the experiment with OVCAR-5 ovarian, with UACC-257 melanoma and in the experiment with OVCAR-8 ovarian was above 100 µM throughout.
On to `Cc1[nH]c(=O)[nH]c(=O)c1CO`, for which the GI50 in the experiment with SNB-19 CNS, in the experiment with MOLT-4 leukemia, in the experiment on ACHN renal, with KM12 colon, in the experiment on 786-0 renal and with OVCAR-5 ovarian was above 100 µM in each case. Besides, the GI50 with UACC-257 melanoma and with OVCAR-8 ovarian was above 100 µM each time. Moreover, the TGI with SNB-19 CNS, in the experiment with MOLT-4 leukemia, in the experiment with ACHN renal, in the experiment on KM12 colon, in the experiment with 786-0 renal and with OVCAR-5 ovarian was above 100 µM throughout. For the same molecule, the TGI with UACC-257 melanoma and in the experiment on OVCAR-8 ovarian was above 100 µM each time.
For the molecule `C=C(C)[C@@H]1CC[C@]2(C)[C@H](CC[C@@H]3[C@H]4[C@H]5OC[C@@]4(CCC5(C)C)CC[C@]32C)[C@@]1(C)CCCN`, the GI50 was 2.04 µM in the experiment with OVCAR-4 ovarian; 1.78 µM in the experiment on SNB-19 CNS; 2.79 µM in the experiment on MOLT-4 leukemia; 1.84 µM with ACHN renal; 1.78 µM with SF-295 CNS; 1.78 µM in the experiment on KM12 colon. Also, the GI50 was 1.67 µM in the experiment on 786-0 renal, 1.71 µM with OVCAR-5 ovarian and 1.88 µM with UACC-257 melanoma. For the same molecule, the TGI in the experiment on OVCAR-4 ovarian was found to be 3.78 µM; in the experiment with SNB-19 CNS it was 3.24 µM; in the experiment with MOLT-4 leukemia, 7.86 µM; in the experiment with ACHN renal, 3.23 µM; in the experiment on SF-295 CNS, 3.22 µM; with KM12 colon, 3.33 µM. Moreover, the figures for the TGI with 786-0 renal, with OVCAR-5 ovarian and in the experiment on UACC-257 melanoma were 3.17 µM, 3.1 µM and 3.73 µM, respectively.
Turning to `CN(C)CCNC(=O)c1cccc2[nH]c(-c3ccccc3)nc12`, the TGI in the experiment with OVCAR-4 ovarian is 82.5 µM; with SNB-19 CNS it was above 100 µM; with MOLT-4 leukemia, 59.6 µM; in the experiment on ACHN renal, 33.3 µM; with SF-295 CNS it was above 100 µM; with KM12 colon, 66.4 µM. In addition, the TGI in the experiment with 786-0 renal was above 100 µM; with OVCAR-5 ovarian, 34.6 µM; in the experiment on UACC-257 melanoma, 30.6 µM.
`CC(C)=CC(=O)Cc1nc2cc(C)c(C)cc2[nH]c1=O`: the TGI in the experiment on OVCAR-4 ovarian, with SNB-19 CNS, in the experiment on MOLT-4 leukemia, in the experiment on ACHN renal, with SF-295 CNS and in the experiment with KM12 colon was above 100 µM in each case. Besides, the TGI with 786-0 renal, with OVCAR-5 ovarian and in the experiment with UACC-257 melanoma was above 100 µM throughout.
Take `CCOC(=O)c1sc(Nc2ccc(Cl)cc2)nc1C`: the GI50 with OVCAR-4 ovarian is 2.04 µM; with SNB-19 CNS, 2.08 µM; with MOLT-4 leukemia, 1.79 µM; in the experiment with ACHN renal, 1.68 µM; in the experiment with SF-295 CNS, 1.69 µM; with 786-0 renal, 1.55 µM. Further, the results for the GI50 in the experiment on OVCAR-5 ovarian, in the experiment with UACC-257 melanoma and in the experiment with OVCAR-8 ovarian were 2.08 µM, 2.11 µM and 2.89 µM, respectively. Moreover, the TGI was determined as 19 µM in the experiment on OVCAR-4 ovarian; 6.25 µM in the experiment with SNB-19 CNS; 6.92 µM with MOLT-4 leukemia; 3.88 µM in the experiment on ACHN renal; 3.57 µM in the experiment with SF-295 CNS; 3.14 µM in the experiment with 786-0 renal. Also, the TGI in the experiment with OVCAR-5 ovarian was 6.63 µM; with UACC-257 melanoma, 4.67 µM; in the experiment on OVCAR-8 ovarian it was 7.73 µM.
